Test results as given in ChEMBL document CHEMBL1201862, “PubChem BioAssay data set” (2004).
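These data come from cells grown in 96-well plates and exposed to compound for 48 hours at five concentrations. GI50 = concentration required for 50% inhibition of growth.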 The source made the active and inactive calls. Cut-off read from the data, not from the text of the source: active = GI50 up to about 1.1 µM and inactive = higher.

Experiments:
Experiment in all cases: DTP human tumour cell line panel, 48 h
DMS-114 = system: DMS-114
DMS-273 = system: DMS-273
M19-MEL = system: M19-MEL
RXF 631 = system: RXF 631
SNB-78 = system: SNB-78
HOP-18 = system: HOP-18
XF498 = system: XF498
Hs-578T = system: Hs-578T
MDA-N = system: MDA-N

Compound | GI50 (DMS-114) | GI50 (DMS-273) | GI50 (M19-MEL) | GI50 (RXF 631) | GI50 (SNB-78) | GI50 (HOP-18) | GI50 (XF498) | GI50 (Hs-578T) | GI50 (MDA-N)
O=C(CC1(O)C(=O)Nc2ccc([N+](=O)[O-])cc21)c1ccc2ccccc2c1 (configuration not stated) | > 100 µM (inactive) | > 100 µM (inactive) | > 100 µM (inactive) | > 100 µM (inactive) | > 100 µM (inactive) | – | – | – | –
OC1=CN=C(C2CC2)Oc2ccccc21 | 41 µM (inactive) | > 100 µM (inactive) | > 100 µM (inactive) | – | > 100 µM (inactive) | – | – | – | –
C/C(CCn1[nH]c(=O)ccc1=O)=N\OCCCc1ccccc1 | > 100 µM (inactive) | > 100 µM (inactive) | > 100 µM (inactive) | – | > 100 µM (inactive) | > 100 µM (inactive) | > 100 µM (inactive) | – | –
CC(=O)C1=C(O)C(N)C2Cc3c(c(O)c4c(O)c(C)ccc4c3C)C(=O)C2(O)C1=O (configuration not stated) | 2.38 µM (inactive) | 1.73 µM (inactive) | 2.48 µM (inactive) | 2.2 µM (inactive) | 2.17 µM (inactive) | 2.93 µM (inactive) | 1.84 µM (inactive) | – | –
O=S(=O)(O)c1ccc([Se][Se]c2ccc(S(=O)(=O)O)cc2)cc1 | > 100 µM (inactive) | 76.7 µM (inactive) | > 100 µM (inactive) | – | > 100 µM (inactive) | > 100 µM (inactive) | > 100 µM (inactive) | – | –
CCCCCCCCCCCCCCCCNc1cccc2ccccc12 | > 100 µM (inactive) | > 100 µM (inactive) | > 100 µM (inactive) | – | > 100 µM (inactive) | – | – | – | –
CSc1ccc(/C=C2\CN(C)C/C(=C\c3ccc(SC)cc3)C2=O)cc1 | 24.9 µM (inactive) | 14.1 µM (inactive) | 35.1 µM (inactive) | – | 19.8 µM (inactive) | > 100 µM (inactive) | 18.9 µM (inactive) | – | –
Fc1ccc(/N=C2C=C/C(=N\c3ccc(F)cc3)c3ccccc3\2)cc1 | – | > 100 µM (inactive) | > 100 µM (inactive) | – | > 100 µM (inactive) | > 100 µM (inactive) | > 100 µM (inactive) | – | –
c1ccc2c(c1)[nH]c1c2nc2ncccn21 | > 100 µM (inactive) | > 100 µM (inactive) | > 100 µM (inactive) | > 100 µM (inactive) | > 100 µM (inactive) | – | > 100 µM (inactive) | – | –
COC(=O)C1=CC(O)CCC1c1ccc(OC)cc1 (configuration not stated) | > 100 µM (inactive) | > 100 µM (inactive) | > 100 µM (inactive) | – | > 100 µM (inactive) | > 100 µM (inactive) | – | – | –
CC(=O)N/C(=C\c1ccc(/C=C(\NC(C)=O)c2nc3cc(Cl)ccc3[nH]2)cc1)c1nc2ccccc2[nH]1 | > 100 µM (inactive) | > 100 µM (inactive) | > 100 µM (inactive) | > 100 µM (inactive) | > 100 µM (inactive) | – | > 100 µM (inactive) | – | –
Cc1cc(O)c(C=O)c(C)c1CCC1(C)C=Cc2cc(O)ccc2O1 (configuration not stated) | 18.4 µM (inactive) | 21.5 µM (inactive) | 27.7 µM (inactive) | – | 21.2 µM (inactive) | 18.3 µM (inactive) | 19.1 µM (inactive) | – | –
O=C(O)C(Cc1ccccc1)N1C(=O)N/C(=C\c2ccc(F)cc2)C1=O (configuration not stated) | – | > 100 µM (inactive) | > 100 µM (inactive) | – | 18.4 µM (inactive) | > 100 µM (inactive) | – | – | –
O=[N+]([O-])c1nccn1CC(O)CN1CC1 (configuration not stated) | 50.7 µM (inactive) | 27.4 µM (inactive) | 63.4 µM (inactive) | 40 µM (inactive) | 78 µM (inactive) | > 100 µM (inactive) | > 100 µM (inactive) | – | –
CS/C(=N\c1ccc([N+](=O)[O-])cc1C#N)NC(=O)c1ccccc1 | > 100 µM (inactive) | – | > 100 µM (inactive) | > 100 µM (inactive) | > 100 µM (inactive) | 75.7 µM (inactive) | > 100 µM (inactive) | – | –
C1=C(c2ccccc2)C(OC2Oc3ccccc3C=C2c2ccccc2)Oc2ccccc21 (configuration not stated) | > 100 µM (inactive) | > 100 µM (inactive) | > 100 µM (inactive) | > 100 µM (inactive) | > 100 µM (inactive) | > 100 µM (inactive) | > 100 µM (inactive) | – | –
CN(C)CC(C)(C)C(/C=C/c1ccccc1)=N\Nc1ccccc1 | 4.25 µM (inactive) | 0.335 µM (active) | 10 µM (inactive) | – | 11 µM (inactive) | 15.3 µM (inactive) | – | – | –
CC1C2(C)OCC(C#N)(C(=N)O2)C1(C#N)C#N (configuration not stated) | – | – | – | – | – | – | – | 17.9 µM (inactive) | 18.3 µM (inactive)
